Experimental data reported in the SangsterLogP compilation.

Assay: method code SF-GLC, from DOI: 10.1016/0045-6535(89)90321-4

SMILES | logP
Clc1ccc2c(oc3c(Cl)ccc(Cl)c32)c1Cl | 6.15
Clc1cc(Cl)c2c(c1Cl)Oc1c(Cl)c(Cl)cc(Cl)c1O2 | 6.85
Clc1cc(Cl)c2c(c1)oc1c(Cl)cc(Cl)cc12 | 6.37
Clc1ccc2c(c1)oc1c(Cl)c(Cl)c(Cl)cc12 | 6.06
Clc1cc2oc3c(Cl)cccc3c2c(Cl)c1Cl | 6.15
Clc1ccc(Cl)c2c1Oc1c(Cl)ccc(Cl)c1O2 | 6.38
Clc1cc2c(oc3ccc(Cl)c(Cl)c32)c(Cl)c1Cl | 6.42
Clc1ccc2c(c1)Oc1c(cc(Cl)c(Cl)c1Cl)O2 | 6.1
Clc1ccc2c(c1)oc1c(Cl)c(Cl)c(Cl)c(Cl)c12 | 6.53
Clc1cc(Cl)c2c(c1)Oc1c(Cl)c(Cl)c(Cl)c(Cl)c1O2 | 6.85
Clc1ccc2c(c1)Oc1c(Cl)c(Cl)c(Cl)c(Cl)c1O2 | 6.6
Clc1cc2c(oc3c(Cl)ccc(Cl)c32)c(Cl)c1Cl | 6.53
Clc1cc2oc3c(Cl)cc(Cl)c(Cl)c3c2cc1Cl | 6.26
Clc1cc2c(c(Cl)c1Cl)Oc1c(Cl)cc(Cl)c(Cl)c1O2 | 7.59
Clc1ccc2c(c1)Oc1c(Cl)c(Cl)cc(Cl)c1O2 | 6.25
Clc1cc2c(c(Cl)c1Cl)Oc1ccc(Cl)c(Cl)c1O2 | 6.74
Clc1cc2c(cc1Cl)Oc1cc(Cl)c(Cl)cc1O2 | 6.42
Clc1cc(Cl)c2c(c1)Oc1c(Cl)cc(Cl)cc1O2 | 6.29
Clc1ccc(Cl)c2c1oc1c(Cl)ccc(Cl)c12 | 5.6
Clc1cc2c(oc3c(Cl)c(Cl)c(Cl)c(Cl)c32)c(Cl)c1Cl | 7.92
Clc1cc2c(c(Cl)c1Cl)Oc1c(Cl)cccc1O2 | 6.39
Clc1cc(Cl)c2c(c1Cl)Oc1c(Cl)ccc(Cl)c1O2 | 6.6
Clc1cc2c(cc1Cl)Oc1c(ccc(Cl)c1Cl)O2 | 6.38
Clc1cc(Cl)c2c(c1Cl)Oc1c(Cl)cccc1O2 | 6.1

SMILES | logP
Clc1cc2c(c(Cl)c1Cl)Oc1c(Cl)ccc(Cl)c1O2 | 6.24
Clc1cc2c(c(Cl)c1Cl)Oc1cccc(Cl)c1O2 | 6.86
Clc1ccc2oc3c(Cl)cc(Cl)c(Cl)c3c2c1 | 6.31
Clc1cc(Cl)c2c(c1)Oc1c(cc(Cl)c(Cl)c1Cl)O2 | 6.53
Clc1cc(Cl)c2oc3c(Cl)ccc(Cl)c3c2c1Cl | 6.59
Clc1cc2c(cc1Cl)Oc1c(Cl)c(Cl)cc(Cl)c1O2 | 6.2
Clc1ccc2c(oc3c(Cl)c(Cl)cc(Cl)c32)c1Cl | 6.19
Clc1cc2c(cc1Cl)Oc1c(Cl)ccc(Cl)c1O2 | 6.39
Clc1cc(Cl)c2c(c1)Oc1cc(Cl)c(Cl)cc1O2 | 6.3
Clc1ccc2oc3c(Cl)c(Cl)c(Cl)c(Cl)c3c2c1 | 6.79
Clc1cc(Cl)c2c(c1Cl)Oc1c(Cl)cc(Cl)c(Cl)c1O2 | 6.85
Clc1cc2c(oc3c(Cl)c(Cl)ccc32)c(Cl)c1Cl | 6.47
Clc1cc(Cl)c2c(c1)Oc1c(ccc(Cl)c1Cl)O2 | 6.43
Clc1cccc2c1Oc1c(Cl)c(Cl)c(Cl)c(Cl)c1O2 | 6.3
Clc1cc2c(cc1Cl)Oc1c(cc(Cl)c(Cl)c1Cl)O2 | 6.64
Clc1cc(Cl)c2oc3cc(Cl)c(Cl)cc3c2c1 | 6.73
Clc1cc2c(c(Cl)c1Cl)Oc1c(Cl)c(Cl)cc(Cl)c1O2 | 7.59
Clc1cc(Cl)c2c(c1Cl)Oc1cccc(Cl)c1O2 | 6.1
Clc1cc(Cl)c2c(c1)Oc1cc(Cl)c(Cl)c(Cl)c1O2 | 6.4
Clc1ccc2c(oc3c(Cl)cc(Cl)c(Cl)c32)c1Cl | 6.27
Clc1ccc2c(c1)Oc1cc(Cl)c(Cl)c(Cl)c1O2 | 6.1
Clc1c(Cl)c(Cl)c2c(oc3ccccc32)c1Cl | 6.17
Clc1ccc2c(c1)Oc1c(Cl)cc(Cl)c(Cl)c1O2 | 6.25
Clc1cc(Cl)c2c(c1)oc1c(Cl)cc(Cl)c(Cl)c12 | 6.19

The next lines start with the values.

logP | SMILES
6.34 | Clc1cc(Cl)c2c(c1)oc1cc(Cl)cc(Cl)c12
6.23 | Clc1cc2oc3ccc(Cl)c(Cl)c3c2cc1Cl
6.51 | Clc1cc(Cl)c2c(oc3ccc(Cl)c(Cl)c32)c1Cl
6.33 | Clc1cc(Cl)c2oc3cc(Cl)c(Cl)c(Cl)c3c2c1
6.17 | Clc1cc2c(oc3cccc(Cl)c32)c(Cl)c1Cl
6.24 | Clc1cc(Cl)c2oc3c(Cl)c(Cl)cc(Cl)c3c2c1
6.23 | Clc1ccc2c(c1)oc1c(Cl)c(Cl)cc(Cl)c12
6.25 | Clc1cc(Cl)c2oc3c(Cl)c(Cl)ccc3c2c1
5.89 | Clc1cc(Cl)c2c(oc3cccc(Cl)c32)c1Cl
6.33 | Clc1cc(Cl)c2c(c1)oc1c(Cl)c(Cl)cc(Cl)c12
6.26 | Clc1cc2oc3c(Cl)c(Cl)ccc3c2c(Cl)c1Cl
6.06 | Clc1cc2oc3cccc(Cl)c3c2c(Cl)c1Cl
6.34 | Clc1cc(Cl)c2oc3c(Cl)cc(Cl)c(Cl)c3c2c1
6.11 | Clc1cc2c(oc3c(Cl)cccc32)c(Cl)c1Cl
6.86 | Clc1cc(Cl)c2c(c1)Oc1ccc(Cl)c(Cl)c1O2
6.34 | Clc1cc(Cl)c2c(c1)oc1cc(Cl)c(Cl)cc12
6.34 | Clc1cc(Cl)c2c(oc3c(Cl)ccc(Cl)c32)c1Cl
6.59 | Clc1cc(Cl)c2oc3c(Cl)c(Cl)c(Cl)cc3c2c1
6.31 | Clc1cc(Cl)c2c(oc3c(Cl)cccc32)c1Cl
6.25 | Clc1cc(Cl)c2c(c1)oc1ccc(Cl)c(Cl)c12
6.17 | Clc1cc(Cl)c2oc3c(Cl)cc(Cl)cc3c2c1
6.39 | Clc1cc(Cl)c2c(c1)Oc1cc(Cl)cc(Cl)c1O2
6.25 | Clc1cc(Cl)c2c(c1)Oc1c(Cl)ccc(Cl)c1O2
6.15 | Clc1ccc2oc3cc(Cl)c(Cl)c(Cl)c3c2c1
6.31 | Clc1cc2oc3c(Cl)c(Cl)ccc3c2cc1Cl
6.13 | Clc1ccc2oc3c(Cl)c(Cl)cc(Cl)c3c2c1
6.25 | Clc1ccc2c(oc3ccc(Cl)c(Cl)c32)c1Cl
